Laboratory results reported in patent publication US20230040279A1, “COMPOSITIONS HAVING PESTICIDAL UTILITY AND PROCESSES RELATED THERETO” (CORTEVA AGRISCIENCE LLC, priority 2019, published 2023).

Key:
[1] = system: Sweetpotato Whitefly (Bemisia tabaci, BEMITA); experiment: Sweetpotato Whitefly (SPW) foliar spray bioassay on cotton seedlings; assay type: in vivo; conditions: for Mean LC50 PPM: cotton seedlings sprayed at crawler emergence, 2-3 instar nymphs counted 7-9 days after treatment, Abbott-corrected % control; for % (percent increase in the Mean LC50 required compared to F1): relative to F1
Experimental: (§1) F1, CE1, CE2, CE3, and CE4 (2 mg each) were each dissolved in 2 mL of acetone/methanol (1:1) solvent, forming stock solutions of 1000 ppm for each test molecule. The stock solutions were diluted 5× with 0.025% Tween® 20 in water to obtain test solutions at 200 ppm for each test molecule. Subsequent 4× dilutions, in water containing 0.025% Tween® 20 and 10% acetone/methanol (1:1), were used to generate the desired concentrations for dose responses. A minimum of 5 concentrations of each test molecule were used for each assay.
Test solutions of Formula One and the Comparative Examples, prepared as described above, were tested against SPW using the following procedure.
Cotton seedlings grown in 3-inch pots, pruned so that only one true leaf remained, were used as test substrate. Adult B. tabaci were allowed to colonize these plants and lay eggs for 24 hours after which all adults were removed from the plants using compressed air. Plants were monitored for egg development and, when crawler emergence was underway (>25% emergence based on visual examination using a microscope), the plants were sprayed using the test solutions and methods described above for green peach aphids (GPA). Treated plants were held in a holding room at approximately 25° C. and ambient relative humidity (RH) prior to grading. Evaluation was conducted by counting the number of developed 2-3 instar nymphs per plant under a microscope 7-9 days after treatment. Percent control was measured using Abbott's correction formula (W. S. Abbott, “A Method of Computing the Effectiveness of an Insecticide” J. Econ. Entomol. 18 (1925), pp.265-267) as follows:
(§2) Corrected % Control=100*(X−Y)/X
where X=No. of live nymphs on solvent check plants and Y=No. of live nymphs on treated plants.

[2] = system: Green Peach Aphid (Myzus persicae, MYZUPE); experiment: Green Peach Aphid (GPA) foliar spray bioassay on cabbage seedlings; assay type: in vivo; conditions: for Mean LC50 PPM: cabbage seedlings, live aphids counted three days after treatment, Abbott-corrected % control; for % (percent increase in the Mean LC50 required compared to F1): relative to F1
Experimental: as §1
Test solutions of Formula One and the Comparative Examples, prepared as described above, were tested against GPA using the following procedure.
Cabbage seedlings grown in 3-inch pots, with 2-3 small (3-5 cm) true leaves, were used as test substrate. The seedlings were infested with 20-50 GPA (wingless adult and nymph stages) one day prior to chemical application. Four pots with individual seedlings were used for each treatment. A hand—held aspirator—type sprayer was used for spraying a solution to both sides of […] leaves until runoff. Reference plants (solvent check) were sprayed with the diluent only (0.025% Tween® 20 and 10% acetone/methanol (1:1) in water). Treated plants were held in a holding room for three days at approximately 25° C. and ambient relative humidity (RH) prior to grading. Evaluation was conducted by counting the number of live aphids per plant under a microscope three days after treatment. Percent control was measured using Abbott's correction formula (W. S. Abbott, “A Method of Computing the Effectiveness of an Insecticide” J. Econ. Entomol. 18 (1925), pp.265-267) as follows:
as §2
where X=No. of live aphids on solvent check plants and Y=No. of live aphids on treated plants. Bioassay 2: Sweetpotato Whitefly (Bemisia tabaci, BEMITA) (“SPW”).

| SMILES | Mean LC50 PPM [1] | % (percent increase in the Mean LC50 required compared to F1) [1] | Mean LC50 PPM [2] | % (percent increase in the Mean LC50 required compared to F1) [2] |
| --- | --- | --- | --- | --- |
| CC(C(=O)N(C)c1cn(-c2cccnc2)nc1Cl)S(C)(=O)=O (stereo not drawn) [CE1, N-(3-chloro-1-(pyridin-3-yl)-1H-pyrazol-4-yl)-N-methyl-2-(methylsulfonyl)propanamide] | 5.61 PPM | 15% | 0.29 PPM | 314% |
| CC(C)(C(=O)Nc1cn(-c2cccnc2)nc1Cl)S(C)(=O)=O [CE4, N-(3-chloro-1-(pyridin-3-yl)-1H-pyrazol-4-yl)-2-methyl-2-(methylsulfonyl)propanamide] | 9.72 PPM | 100% | 2.17 PPM | 3000% |
| CC(C(=O)Nc1cn(-c2cccnc2)nc1Cl)S(C)(=O)=O (stereo not drawn) [Molecule F1, N-(3-chloro-1-(pyridin-3-yl)-1H-pyrazol-4-yl)-2-(methylsulfonyl)propanamide] | 4.87 PPM |  | 0.07 PPM |  |
| CN(C(=O)CS(C)(=O)=O)c1cn(-c2cccnc2)nc1Cl [CE2, N-(3-chloro-1-(pyridin-3-yl)-1H-pyrazol-4-yl)-N-methyl-2-(methylsulfonyl)acetamide] | 21.01 PPM | 331% | 0.52 PPM | 643% |
| CS(=O)(=O)CC(=O)Nc1cn(-c2cccnc2)nc1Cl [CE3, N-(3-chloro-1-(pyridin-3-yl)-1H-pyrazol-4-yl)-2-(methylsulfonyl)acetamide] | 25.35 PPM | 421% | 0.05 PPM | −29% |
